12 compounds from patent US6391576B1, “Method for isolating a microbe” (Japan Bioindustry Association, priority 1999, dated 2002) can be followed below.

For the assay, the system named is microorganisms in the activated sludge. Kind of assay: Colony formation on NUTRIENT BROTH agar plates inoculated with activated sludge cell dispersion. The note with it: 30° C.; for Growth of the microorganisms in the activated sludge (in words): 0.1 w/w % on plate. It is filed as cell-based. How it is done:
Ten ml of activated sludge obtained from a food manufacturer's factory were filtered through gauze. The filtered activated sludge was stirred, subjected to ultra-sonics, added with a saline solution, and further stirred to allow cells to disperse well in the filtered activated sludge. The cell dispersion was diluted with a saline solution to 3×10^4 cells/ml as determined by staining with 6-carboxy-fluorescein diacetate (J. Porter et al. J. Appl. Bacteriol., Vol. 79, 399-408 (1995)).
The medium used was NUTRIENT BROTH (DIFICO), an 1:3 mixture of Bact Beef® and Bact Peptone®) added with 0.2% glucose and 2% agar. The medium was heat-sterilized and allowed to coagulate in plates. The plates were added with 0.1 w/w % of the compound shown in Table 3 and inoculated with 0.1 ml of the cell dispersion solution, and incubated at 30° C. After 2 or 10 days incubation, the number of colonies formed on the plates was counted.

The mark [1] stands for this setting: 0.1 w/w % polysaccharide on plate.
Where [2] appears, read: 0.1 w/w % cyclodextrin compound on plate, 0.1 ml cell dispersion.

On to Dextran, for which, under setting [1], the “Colony/plate formed after incubation of 2 days” value (“Colony/plate formed … of 2 days” for short) was 146 Colony/plate and the “Colony/plate formed after incubation of 10 days” value (from here on “Colony/plate formed … of 10 days”) is 350 Colony/plate.

Consider `OC[C@H]1O[C@@H]2O[C@H]3[C@H](O)[C@@H](O)[C@@H](O[C@H]4[C@H](O)[C@@H](O)[C@@H](O[C@H]5[C@H](O)[C@@H](O)[C@@H](O[C@H]6[C@H](O)[C@@H](O)[C@@H](O[C@H]7[C@H](O)[C@@H](O)[C@@H](O[C@H]1[C@H](O)[C@H]2O)O[C@@H]7CO)O[C@@H]6CO)O[C@@H]5CO)O[C@@H]4CO)O[C@@H]3CO` [α-Cyclodextrin], for which, under setting [2], the “Colony/plate formed … of 2 days” value was 120 Colony/plate and the “Colony/plate formed … of 10 days” value stood at 320 Colony/plate.

With Glucomannan, under setting [1], the “Colony/plate formed … of 2 days” value came out at 190 Colony/plate and the “Colony/plate formed … of 10 days” value is on record as 650 Colony/plate.

On to 2-Hydroxypropyl-β-cyclodextrin, for which the “Growth of the microorganisms in the activated sludge (in words)” value (shortened to “Growth of the microorganisms”) is on record as “promoted the growth”. Also, under setting [2], the “Colony/plate formed … of 2 days” value is given as 270 Colony/plate and the “Colony/plate formed … of 10 days” value was found to be 710 Colony/plate.

For the compound Curdlan, under setting [1], the “Colony/plate formed … of 2 days” value was 220 Colony/plate and the “Colony/plate formed … of 10 days” value came out at 745 Colony/plate.

Consider `OC[C@H]1O[C@@H]2O[C@H]3[C@H](O)[C@@H](O)[C@@H](O[C@H]4[C@H](O)[C@@H](O)[C@@H](O[C@H]5[C@H](O)[C@@H](O)[C@@H](O[C@H]6[C@H](O)[C@@H](O)[C@@H](O[C@H]7[C@H](O)[C@@H](O)[C@@H](O[C@H]8[C@H](O)[C@@H](O)[C@@H](O[C@H]1[C@H](O)[C@H]2O)O[C@@H]8CO)O[C@@H]7CO)O[C@@H]6CO)O[C@@H]5CO)O[C@@H]4CO)O[C@@H]3CO` [β-Cyclodextrin], for which, under setting [2], the “Colony/plate formed … of 2 days” value is on record as 105 Colony/plate and the “Colony/plate formed … of 10 days” value worked out at 350 Colony/plate.

Regarding `COC[C@H]1O[C@@H]2O[C@H]3[C@H](O)[C@@H](OC)[C@@H](O[C@H]4[C@H](O)[C@@H](OC)[C@@H](O[C@H]5[C@H](O)[C@@H](OC)[C@@H](O[C@H]6[C@H](O)[C@@H](OC)[C@@H](O[C@H]7[C@H](O)[C@@H](OC)[C@@H](O[C@H]8[C@H](O)[C@@H](OC)[C@@H](O[C@H]1[C@H](O)[C@H]2OC)O[C@@H]8COC)O[C@@H]7COC)O[C@@H]6COC)O[C@@H]5COC)O[C@@H]4COC)O[C@@H]3COC` [2,6-Di-O-methyl-β-cyclodextrin], the “Growth of the microorganisms” value was “promoted the growth”. Under setting [2], the “Colony/plate formed … of 2 days” value is recorded as 520 Colony/plate and the “Colony/plate formed … of 10 days” value was 1,060 Colony/plate.

On to Pullulan, for which, under setting [1], the “Colony/plate formed … of 2 days” value amounted to 180 Colony/plate and the “Colony/plate formed … of 10 days” value is 600 Colony/plate.

Consider `COC[C@H]1O[C@@H]2O[C@H]3[C@H](OC)[C@@H](OC)[C@@H](O[C@H]4[C@H](OC)[C@@H](OC)[C@@H](O[C@H]5[C@H](OC)[C@@H](OC)[C@@H](O[C@H]6[C@H](OC)[C@@H](OC)[C@@H](O[C@H]7[C@H](OC)[C@@H](OC)[C@@H](O[C@H]8[C@H](OC)[C@@H](OC)[C@@H](O[C@H]1[C@H](OC)[C@H]2OC)O[C@@H]8COC)O[C@@H]7COC)O[C@@H]6COC)O[C@@H]5COC)O[C@@H]4COC)O[C@@H]3COC` [2,3,6-Tri-O-methyl-β-cyclodextrin], for which the “Growth of the microorganisms” value is “promoted the growth”. Further, under setting [2], the “Colony/plate formed … of 2 days” value worked out at 220 Colony/plate and the “Colony/plate formed … of 10 days” value turned out to be 650 Colony/plate.

`OC[C@H]1O[C@@H]2O[C@H]3[C@H](O)[C@@H](O)[C@@H](O[C@H]4[C@H](O)[C@@H](O)[C@@H](O[C@H]5[C@H](O)[C@@H](O)[C@@H](O[C@H]6[C@H](O)[C@@H](O)[C@@H](O[C@H]7[C@H](O)[C@@H](O)[C@@H](O[C@H]8[C@H](O)[C@@H](O)[C@@H](O[C@H]9[C@H](O)[C@@H](O)[C@@H](O[C@H]1[C@H](O)[C@H]2O)O[C@@H]9CO)O[C@@H]8CO)O[C@@H]7CO)O[C@@H]6CO)O[C@@H]5CO)O[C@@H]4CO)O[C@@H]3CO` [γ-Cyclodextrin]: the “Growth of the microorganisms” value was “promoted the growth”. Under setting [2], the “Colony/plate formed … of 2 days” value is 210 Colony/plate and the “Colony/plate formed … of 10 days” value was 640 Colony/plate.

Cellulose: under setting [1], the “Colony/plate formed … of 2 days” value is 244 Colony/plate and the “Colony/plate formed … of 10 days” value came out at 685 Colony/plate.

In the case of Glycogen, under setting [1], the “Colony/plate formed … of 2 days” value is on record as 210 Colony/plate and the “Colony/plate formed … of 10 days” value was found to be 830 Colony/plate.
